# Counter-ions that a name gives are not always drawn.
# Experiments:
# Src (p60^c-src) = biological target: T1, Src (p60^c-src) (Homo sapiens, UniProt P12931); test: SRC-Inhibitor-Assay, time-resolved fluorescence kinase assay (Src); type: biochemical; conditions: ATP 5 μM; enzyme 2.5 U/ml; pre-incubation 15 min at 15° C.; read-out: IC 50 (src)
# T1 construct: purchased Upstate (UBI)
# Experimental: (§1) The activity of the compounds according to this invention as inhibitors for the src-family tyrosine kinases was shown by using the following assay.
# (§2) SRC-Inhibitor-Assay Parameters:
# (§3) Assay buffer: 4 mM MgCl2 • 2 mM TCEP • 50 mM HEPES • 0,1% Tween 20 • pH 7.3
# (§4) Material: Eu-labelled phosphotyrosine antibody:—for Lck Cisbio Mab PT66-K, for Src EG&G Wallac PT66 Eu-W1024 (all commercially available). Peptides: Ro: NH2-A-E-E-E-I-Y-G-E-F-E-A-K-K-K-K-CONH2, and Ja133-Ro: Ja133-G-Aminocaprylic acid-A-E-E-E-I-Y-G-E-F-E-A-K-K-K-K-CONH2, wherein Ja133 is LightCycler-Red 640-N-hydroxy succinimide ester; whereby both peptides were synthesized by an optimized solid phase peptide synthesis protocol (Merrifield, Fed. Proc. Fed. Amer. Soc. Exp. Biol. 21 (1962) 412) on a Zinsser SMP350 peptide synthesizer. Shortly, the peptide was assembled on 160 mg (22.8 μmol scale) of a Rink-Linker modified polystyrene solid phase by repeatedly conjugating an twenty fold excess of amino acids each protected by temporary piperidine labile Fmoc- and permanent acid labile tert-Bu-, BOC— and Otert-Bu-groups depending on the side chain function. The substrate sequence AEEEIYGEFEAKKKK was N-terminal additionally mounted with the spacer amino acids Aminocaprylic acid and Glycin. After cleavage of the N-terminal temporary protecting group the still attached and protected peptide was labeled with a 1.5 fold amount of LightCycler-Red 640-N-hydroxy succinimide ester (purchased by Roche Diagnostics GmbH) and triethylamine. After 3 hrs. the resin was washed with Dimethylformamide and Isopropanol until the eluates of the blue resin got colourless. […] The substrate was finally isolated by a preparative reverse phase HPLC purification. The purification yielded 12.2 mg RP-HPLC single peak pure blue material (lyophilisate). The identity was proven by MALDI mass spectroscopy [2720.0]. Enzymes: Upstate Lck (p56^lck, active), Upstate Src (p60^c-src, partially purified) were purchased from UBI. Time-resolved Fluorescence Assay: Reader: Perkin Elmer, Wallac Viktor 1420-040 multilabel counter; Liquid handling system: Beckman Coulter, Biomek 2000. ATP, Tween 20, HEPES were purchased from Roche Molecular Biochemicals, MgCl2 and MnCl2 were purchased from Merck Eurolab, TCEP was purchased from Pierce, 384 Well low volume fluorescence plates was purchased from Falcon. Assay Description:
# (§5) At first the enzyme is pre-incubated for 15 min. at 15° C. in aqueous solution with corresponding amounts of inhibitors according to this invention. Then the phosphorylation reaction is started by adding a reaction mixture, containing ATP, Peptide and PT66, and subsequent shaking. The proceeding of this reaction is immediately monitored using time resolved fluorescence spectroscopy in a suitable well plate reader.
# (§6) The IC50-values can be obtained from the reaction rates by using a non-linear curve fit (Excelfit).
# Lck (p56^lck) = biological target: T2, Lck (p56^lck) (Homo sapiens, UniProt P06239); test: SRC-Inhibitor-Assay, time-resolved fluorescence kinase assay (Lck); type: biochemical; conditions: ATP 5 μM; enzyme 2.5 U/ml; pre-incubation 15 min at 15° C.; read-out: IC 50 (lck)
# T2 construct: purchased Upstate (UBI)
# Experimental: as §1, §2, §3, §4, §5, §6
# [1] = Pharmacokinetic study in mice, plasma levels after single p.o. dose; type: in vivo; conditions: male NMRI mice, p.o. single dose 30 mg/kg as micro-suspension, dose-normalised
# Experimental: A preferred pharmaceutical preparation was obtained by using the following procedure: • 1. Weigh 4.0 g glass beads in custom made tube GL 25, 4 cm (the beads fill half of the tube). • 2. Add 50 mg compound, disperse with spatulum and vortex. • 3. Add 2 ml gelatin solution (weight beads: gelatin solution=2:1) and vortex. • 4. Cap and wrap in aluminium foil for light protection. • 5. Prepare a counter balance for the mill. • 6. Mill for 4 hours, 20/s in a Retsch mill (for some substances up to 24 hours at 30/s). • 7. Extract suspension from beads with two layers of filter (100 μm) on a filter holder, coupled to a recipient vial by centrifugation at 400 g for 2 min. • 8. Move extract to measuring cylinder. • 9. Repeat washing with small volumes (here 1 ml steps) until final volume is reached or extract is clear. • 10. Fill up to final volume with gelatin and homogenise.
# The above described preparation yields micro-suspensions of the compounds of formula I with particle sizes between 1 and 10 μm. The suspensions are suitable for oral applications and were used in the in vivo pharmacokinetic testings described below.
# To male NMRI mice of 29–35 g body weight the compounds according to this invention were given p.o. as micro-suspensions (7.5% modified gelatine and 0.22% NaCl) in doses of 30 mg/kg (Drug concentration: 3 mg/mL. Administered volume: 10 mL/kg) and as single dose administration. Study Protocol:
# Animals were fasted overnight up to 4 hrs. after administration of the compound. For each single p.o. dose the mice were allocated to 3 groups with 4 animals each. Blood samples are taken from group 1 at 0.5, 3 and 24 hours, from group 2 at 1 and 6 hours, and from group 3 at 2 and 8 hours.
# Blood samples of about 200 μl were obtained by retro-orbital puncture. Plasma samples were obtained from heparinized/EDTA blood by centrifugation at room temperature, and stored frozen at −20° C. until analysis.
# Plasma was deproteinated and subsequently analysed for plasma levels of the compound by a compound specific HPLC-MS method. WinNonlin™ was used to calculate the pharmacokinetic parameters.
# T2 sequence (P06239 whole entry, species assumed): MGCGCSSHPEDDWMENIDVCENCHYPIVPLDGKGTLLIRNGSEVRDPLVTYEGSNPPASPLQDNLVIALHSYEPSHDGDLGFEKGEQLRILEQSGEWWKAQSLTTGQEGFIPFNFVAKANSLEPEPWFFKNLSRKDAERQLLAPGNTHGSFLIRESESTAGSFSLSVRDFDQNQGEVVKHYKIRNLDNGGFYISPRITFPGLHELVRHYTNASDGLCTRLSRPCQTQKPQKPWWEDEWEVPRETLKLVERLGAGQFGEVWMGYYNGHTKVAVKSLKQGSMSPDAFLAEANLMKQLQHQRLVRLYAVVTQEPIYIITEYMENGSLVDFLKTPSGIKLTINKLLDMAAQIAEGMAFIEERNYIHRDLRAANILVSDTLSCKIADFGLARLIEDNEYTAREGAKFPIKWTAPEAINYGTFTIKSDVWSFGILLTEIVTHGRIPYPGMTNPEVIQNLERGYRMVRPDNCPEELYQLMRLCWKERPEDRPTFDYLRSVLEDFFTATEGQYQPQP
# T1 sequence (P12931 whole entry): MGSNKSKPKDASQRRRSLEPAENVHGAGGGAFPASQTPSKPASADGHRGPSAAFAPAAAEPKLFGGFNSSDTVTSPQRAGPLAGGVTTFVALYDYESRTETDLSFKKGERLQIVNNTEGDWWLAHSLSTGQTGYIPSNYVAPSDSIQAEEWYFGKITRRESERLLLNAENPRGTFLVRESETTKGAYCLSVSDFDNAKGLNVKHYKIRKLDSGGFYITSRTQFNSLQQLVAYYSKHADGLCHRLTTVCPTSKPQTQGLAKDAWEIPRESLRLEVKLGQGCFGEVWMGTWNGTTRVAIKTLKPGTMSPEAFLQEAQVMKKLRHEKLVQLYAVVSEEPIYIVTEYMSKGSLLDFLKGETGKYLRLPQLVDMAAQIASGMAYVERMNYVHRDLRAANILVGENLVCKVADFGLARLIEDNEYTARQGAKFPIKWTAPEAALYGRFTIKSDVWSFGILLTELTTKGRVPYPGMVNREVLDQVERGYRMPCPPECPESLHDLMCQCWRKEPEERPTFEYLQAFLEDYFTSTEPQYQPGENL
SMILES,IC50 (Src (p60^c-src)),IC50 (Lck (p56^lck)),AUC = area under the curve from T = 0 to T = 24 hrs [1]
"CC1c2cnc(Nc3ccc4c(c3)S(=O)(=O)CCO4)nc2N(C)C(=O)N1c1ccccc1Br (single isomer, unassigned; enantiomer 1) [Example 8a, 3-(2-Bromo-phenyl)-7-(4,4-dioxo-3,4-dihydro-2H-4λ^6-benzo[1,4]oxathiin-6-ylamino)-1,4-dimethyl-3,4-dihydro-1H-pyrimido[4,5-d]pyrimidin-2-one; enantiomer 1]",0.4 nM,8.1 nM,
"CC(=O)N1CCC2(CC1)Oc1ccc(Nc3ncc4c(n3)N(C)C(=O)N(c3ccccc3Br)C4)cc1O2 [Example 6, 3-(2-bromo-phenyl)-3,4-dihydro-7-(1′-acetyl-spiro[1,3-benzodioxolo-2,4′-piperidine]-5-yl)amino-1-methyl-pyrimido[4,5-d]pyrimidin-2(1H)-one]",,,315 (h * ng/ml))/(mg/kg)
"CN1C(=O)N(c2c(F)cccc2Br)Cc2cnc(Nc3ccc4c(c3)S(=O)(=O)CCO4)nc21 [Example 8, 3-(2-bromo-6-fluoro-phenyl)-7-(4,4-dioxo-3,4-dihydro-2H-4λ^6-benzo[1,4]oxathiin-6-ylamino)-1-methyl-3,4-dihydro-1H-pyrimido[4,5-d]pyrimidin-2-one]",1.8 nM,4.7 nM,
"CN1CCS(=O)(=O)c2cc(Nc3ncc4c(n3)N(C)C(=O)N(c3c(F)cccc3Br)C4)ccc21 [Example 11, 3-(2-bromo-6-fluoro-phenyl)-1-methyl-7-(4-methyl-1,1-dioxo-1,2,3,4-tetrahydro-1lambda*6*-benzo[1,4]thiazin-7-ylamino)-3,4-dihydro-1H-pyrimido[4,5-d]pyrimidin-2-one]",0.8 nM,4.3 nM,
"CN1Cc2ccc(Nc3ncc4c(n3)N(C)C(=O)N(c3ccccc3Br)C4)cc2C1 [Example 13-3, 3-(2-bromo-phenyl)-1-methyl-7-(2-methyl-2,3-dihydro-1H-isoindol-5-ylamino)-3,4-dihydro-1H-pyrimido[4,5-d]pyrimidin-2-one; hydrochloride salt]",1.5 nM,4.2 nM,
"CN1C(=O)N(c2ccccc2Br)Cc2cnc(Nc3ccc4c(c3)S(=O)(=O)CO4)nc21 [Example 13-4, 3-(2-bromo-phenyl)-7-(3,3-dioxo-2,3-dihydro-3lambda*6*-benzo[1,3]oxathiol-5-ylamino)-1-methyl-3,4-dihydro-1H-pyrimido[4,5-d]pyrimidin-2-one]",17 nM,29.4 nM,
"CN1C(=O)N(c2ccccc2Br)Cc2cnc(Nc3ccc4c(c3)OCO4)nc21 [Example 13-8, 7-(benzo[1,3]dioxol-5-ylamino)-3-(2-bromo-phenyl)-1-methyl-3,4-dihydro-1H-pyrimido[4,5-d]pyrimidin-2-one]",17 nM,20 nM,
"CN1C(=O)c2ccc(Nc3ncc4c(n3)N(C)C(=O)N(c3c(F)cccc3Br)C4)cc2C1=O [Example 13-16, 5-[6-(2-bromo-6-fluoro-phenyl)-8-methyl-7-oxo-5,6,7,8-tetrahydro-pyrimido[4,5-d]pyrimidin-2-ylamino]-2-methyl-isoindole-1,3-dione]",11 nM,21 nM,
O=C1CS(=O)(=O)c2cc(Nc3ncc4c(n3)NC(=O)N(c3c(F)cccc3Br)C4)ccc2N1 [Example 13-29],2.5 nM,6.7 nM,
"COc1ccc(Br)c(N2Cc3cnc(Nc4ccc5c(c4)S(=O)(=O)CCO5)nc3N(C)C2=O)c1 [Example 13-48, 3-(2-Bromo-5-methoxy-phenyl)-7-(4,4-dioxo-3,4-dihydro-2H-4λ^6-benzo[1,4]oxathiin-6-ylamino)-1-methyl-3,4-dihydro-1H-pyrimido[4,5-d]pyrimidin-2-one]",72.8 nM,37.5 nM,
"CCN(CC)CCOc1ccc(Nc2ncc3c(n2)N(C)C(=O)N(c2ccccc2Br)C3)cc1 [Reference cpd 43 from WO 00/24744A, 3-(2-bromo-phenyl)-7-[4-(2-diethylamino-ethoxy)-phenylamino]-1-methyl-3,4-dihydro-1H-pyrimido[4,5-d]pyrimidin-2-one, reference compound]",,,69.3 (h * ng/ml))/(mg/kg)

# The next lines start with results.
IC50 (Src (p60^c-src)),IC50 (Lck (p56^lck)),SMILES,AUC = area under the curve from T = 0 to T = 24 hrs [1]
0.019 nM,0.0246 nM,"CC1c2cnc(Nc3ccc4c(c3)S(=O)(=O)CC(=O)N4C)nc2N(C)C(=O)N1c1ccccc1Br (single isomer, unassigned; enantiomer 1) [Example 13-52, 3-(2-Bromo-phenyl)-1,4-dimethyl-7-(4-methyl-1,1,3-trioxo-1,2,3,4-tetrahydro-1λ^6-benzo[1,4]thiazin-7-ylamino)-3,4-dihydro-1H-pyrimido[4,5-d]pyrimidin-2-one; enantiomer 1]",
2970 nM,1340 nM,"CC1c2cnc(Nc3ccc4c(c3)S(=O)(=O)CCO4)nc2N(C)C(=O)N1c1ccccc1Br (single isomer, unassigned; enantiomer 2) [Example 13-50, 3-(2-Bromo-phenyl)-7-(4,4-dioxo-3,4-dihydro-2H-4λ^6-benzo[1,4]oxathiin-6-ylamino)-1,4-dimethyl-3,4-dihydro-1H-pyrimido[4,5-d]pyrimidin-2-one; enantiomer 2]",
2520 nM,1280 nM,"CC1c2cnc(Nc3ccc4c(c3)S(=O)(=O)CC(=O)N4C)nc2N(C)C(=O)N1c1ccccc1Br (single isomer, unassigned; enantiomer 2) [Example 13-51, 3-(2-Bromo-phenyl)-1,4-dimethyl-7-(4-methyl-1,1,3-trioxo-1,2,3,4-tetrahydro-1λ^6-benzo[1,4]thiazin-7-ylamino)-3,4-dihydro-1H-pyrimido[4,5-d]pyrimidin-2-one; enantiomer 2]",
7.2 nM,5.4 nM,"COc1cccc(F)c1N1Cc2cnc(Nc3ccc4c(c3)S(=O)(=O)CCO4)nc2N(C)C1=O [Example 13-49, 7-(4,4-Dioxo-3,4-dihydro-2H-4λ^6-benzo[1,4]oxathiin-6-ylamino)-3-(2-fluoro-6-methoxy-phenyl)-1-methyl-3,4-dihydro-1H-pyrimido[4,5-d]pyrimidin-2-one]",
4.3 nM,12.9 nM,"CN1C(=O)N(c2c(F)cccc2C#N)Cc2cnc(Nc3ccc4c(c3)S(=O)(=O)CCO4)nc21 [Example 13-53, 2-[7-(4,4-Dioxo-3,4-dihydro-2H-4λ^6-benzo[1,4]oxathiin-6-ylamino)-1-methyl-2-oxo-1,4-dihydro-2H-pyrimido[4,5-d]pyrimidin-3-yl]-3-fluoro-benzonitrile]",

# Source: US7091345B2, “Amino-substituted dihydropyrimido[4,5-D]pyrimidinone derivatives” (Hoffmann-La Roche Inc., priority 2002, dated 2006)
